What was measured:
Wnt pathway [1] = assay: Western blot of Wnt pathway proteins in human myotubes after drug administration; type: cell-based; conditions: for active β-catenin: myotubes
Protocol: (§1) To obtain primary myoblasts, muscle biopsies were processed and cultured in monolayer according to the method described by Askanas (Neurology, 1975, 25, 58-67). To isolate the pure population of myoblasts and CD56-negative cells (CD56-), the protocol described previously (Jaka et al., Expert Reviews in Molecular Medicine, 2017, 19, e2) was used, using immunomagnetic separation based on the early presence of the surface marker CD56 (Miltenyi Biotec, 130-050-401).
(§2) Myoblasts were cultured in proliferation medium (DMEM, M-199, Insulin, Glutamine and penicillin-streptomycin) with 10% FBS and growth factors at 37° C. in 5% CO2 air incubator. When myoblasts reached confluence, the FBS concentration was reduced to 2% and growth factors were removed from the medium, promoting fusion and production of myotubes.
(§3) VP0.7 was provided by Dr. Ana Martínez (from The Center for Biological Research, CSIC). It was administered at 1.2 μM, whereas LiCl (Sigma-Aldrich, L7026) was used for comparative purposes at a final concentration of 10 mM. VP0.7 and LiCl were administered at the above referred concentrations to myotubes at eight days of differentiation, and VP0.7 also to skin fibroblasts and to CD56-cells. Negative controls, in the case of VP0.7, were performed with DMSO (Fisher Scientific, BP-231). At 48 hours after drug administration, RNA and proteins were extracted.
(§4) Protein collection from muscle samples and cell cultures, as well as Western blot procedure, were performed as previously described (Jaka et al., Expert Reviews in Molecular Medicine, 2017, 19, e2).
We proceeded to analyse the expression of the GSK3β protein, as well as its downstream effect on the Wnt pathway in myotubes from controls and patients after drug administration. […] As a control assay, lithium was administered and an increase in active β-catenin was verified (FIG. 2C).

Akt/mTOR pathway = assay: Western blot of Akt/mTOR pathway proteins in human myotubes; type: cell-based
Protocol: as §1, §2, §3, §4
Furthermore, downstream of the mTOR pathway, the p70S6K and RPS6 proteins were analysed. After administration of VP0.7, the expression of total p70S6K, its phosphorylation (Thr421/Ser424 and Thr389), as well as the levels of phosphorylation of the RPS6 protein (Ser235/Ser236) increased in the patient's sample. In the control, the effect observed after the treatments is very slight (FIG. 3B).
For comparative purposes, LiCl was also administered in control and patient's myotubes and the phosphorylation of p70S6K and RPS6 proteins were also tested. The results are depicted in FIG. 4.

FRBZ gene, β1D integrin = conditions: LiCl treatment, cited from earlier work
GSK3 [2] = conditions: low therapeutic dose 0.5 mM, Kurgan et al. 2019; cited from earlier work
GSK3β = conditions: low dose, Whitley et al. 2020, cited from earlier work
[3] = system: CAPN3, FOS, ANOS1 and ITGB1BP2 genes; assay: Quantitative real-time PCR of deregulated genes in LGMDR1 myotubes; type: cell-based, human; conditions: VP0.7 1.2 μM, 48 h
Protocol: as §3
RNA extraction from primary myoblast/myotubes was performed with an RNeasy Mini Kit (Qiagen). In the case of the muscle biopsies, which were snap frozen and stored at −80° C. until use, total RNA was obtained using an RNA-Plus Kit (QBiogene).
The isolated RNA was reverse-transcribed to first-strand complementary DNA (cDNA) in a final volume of 50 μl using a High Capacity cDNA Reverse Transcription Kit (Applied Biosystems), according to the manufacturer's instructions. The expression levels of CAPN3, FOS, ITGB1BP2, ANOS1 and GAPDH genes in the samples were assessed by real-time quantitative PCR with TaqMan probes (Table Il below) using the ‘CFX384 Real-Time PCR Detection System’ (Bio-Rad).
On the other hand, in previous studies we had already described that activating the Wnt pathway through the silencing of the FRZB gene or with treatment with lithium, the expression of some altered genes in the muscle of patients was recovered (Jaka et al., Expert Reviews in Molecular Medicine, 2017, 19, e2; Casas-Fraile et al., Orphanet Journal of Rare Diseases, 2020, 15(1), 119). Thus, their expression was analysed after administering VP0.7.

integrin β1D and melusin = assay: Western blot of costamere structural proteins in human myotubes; type: cell-based; conditions: VP0.7 1.2 μM, 48 h
Protocol: as §3, §4
Likewise, the expression of some of the structural proteins that are part of the costamere, whose expression is altered in LGMDR1 patients, was analysed. After drug administration, an increase in integrin β1D and melusin was also observed (FIG. 2E).

Wnt pathway [4] = assay: Western blot of Wnt pathway proteins in skin fibroblasts; type: cell-based, human; conditions: VP0.7 1.2 μM, 48 h
Protocol: (§5) Skin fibroblasts from healthy controls and from LGMDR1 patients were provided by Dr. Ana Aiastui (Biodonostia Health Research Institute, Cell Culture and Histology Platform). Cells were cultured in Dulbecco's modified Eagle's medium (DMEM, Gibco, 41966-029) supplemented with 10% FBS (Gibco, 10270-106) and 1% penicillin-streptomycin (Gibco, 15140-122) at 37° C. in a 5% CO2 air incubator. Human fibroblasts were cultured at a density of 4×10^4 cells/ml.
as §3, §4

mTOR pathway [5] = assay: Western blot of mTOR pathway protein in skin fibroblasts; type: cell-based, human; conditions: VP0.7 1.2 μM, 48 h
Protocol: as §5, §3, §4

Wnt pathway [6] = assay: Western blot of Wnt pathway proteins in CD56- cells; type: cell-based, human; conditions: VP0.7 1.2 μM, 48 h
Text: as §1, §3, §4

mTOR pathway [7] = assay: Western blot of mTOR pathway proteins in CD56- cells; type: cell-based, human; conditions: VP0.7 1.2 μM, 48 h
Text: as §1, §3, §4

GSK3 [8] = biological target: GSK3 (Homo sapiens, UniProt P49841); conditions: highly selective and allosteric modulator; Luna-Medina 2007, Palomo 2011; cited from earlier work
GSK3 (Homo sapiens, UniProt P49841), sequence (P49841 whole entry): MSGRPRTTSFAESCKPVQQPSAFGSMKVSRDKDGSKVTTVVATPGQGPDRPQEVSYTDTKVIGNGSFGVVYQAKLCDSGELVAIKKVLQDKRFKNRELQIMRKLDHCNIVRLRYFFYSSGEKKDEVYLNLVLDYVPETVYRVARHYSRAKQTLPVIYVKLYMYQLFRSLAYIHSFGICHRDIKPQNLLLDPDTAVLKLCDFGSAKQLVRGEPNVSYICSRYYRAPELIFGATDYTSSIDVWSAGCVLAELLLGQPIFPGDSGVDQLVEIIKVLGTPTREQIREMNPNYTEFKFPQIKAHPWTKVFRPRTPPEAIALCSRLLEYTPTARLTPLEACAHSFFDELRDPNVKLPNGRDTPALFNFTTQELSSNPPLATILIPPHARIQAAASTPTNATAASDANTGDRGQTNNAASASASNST

[9] = LiCl 10 mM, drug administration +, myotubes, control 09-23
[10] = LiCl 10 mM, drug administration +, myotubes, control 13-07
[11] = LiCl 10 mM, drug administration +, myotubes, patient 09-21
[12] = LiCl 10 mM, drug administration +, myotubes, patient 09-24
[13] = LiCl 10 mM, drug administration +, myotubes, patient 09-25
[14] = VP0.7 1.2 μM, 48 h, patient's myotubes
[15] = VP0.7 1.2 μM, 48 h, patient's sample, myotubes
[16] = VP0.7 1.2 μM, myotubes, control 13-05, relative to the same sample without treatment
[17] = VP0.7 1.2 μM, myotubes, patient 09-25, relative to the same sample without treatment

[Cl-].[Li+] [LiCl, reference compound]
active β-catenin (Wnt pathway [1]; LiCl 10 mM, 48 h, control assay): increase
proteins involved in the mTOR pathway and their phosphorylation forms (Akt/mTOR pathway; LiCl 10 mM, 48 h, control and patient's myotubes): did not provide any increase
P-RPS6 (S235-S236) (Akt/mTOR pathway; [9]): 3.8
P-p70S6K (T421-S424) (Akt/mTOR pathway; [9]): 0.78
P-RPS6 (S235-S236) (Akt/mTOR pathway; [10]): 3
P-p70S6K (T421-S424) (Akt/mTOR pathway; [10]): 0.7
P-RPS6 (S235-S236) (Akt/mTOR pathway; [11]): 1.5
P-p70S6K (T421-S424) (Akt/mTOR pathway; [11]): 0.5
P-RPS6 (S235-S236) (Akt/mTOR pathway; [12]): 3
P-p70S6K (T421-S424) (Akt/mTOR pathway; [12]): 1.4
P-RPS6 (S235-S236) (Akt/mTOR pathway; [13]): 2.5
P-p70S6K (T421-S424) (Akt/mTOR pathway; [13]): 0.65
expression of the FRBZ gene (FRBZ gene, β1D integrin; Jaka et al. 2017): lower levels
β1D adult isoform of the integrin (FRBZ gene, β1D integrin; primary myotubes): higher levels
inhibition of GSK3 (GSK3 [2]): inhibit
myoblast fusion (GSK3 [2]): augment
inhibition of GSK3β (GSK3β): effective in inhibiting
fatigue resistance in some muscles (GSK3β; via NFAT activation): enhances

CCCCCCCCCCCC(=O)NNC(=O)c1c(O)c2ccccc2n(CC)c1=O [VP0.7, N′-dodecanoyl-1-ethyl-4-hydroxy-2-oxo-1,2-dihydroquinoline-3-carbohydrazide]
total β-catenin expression (Wnt pathway [1]; VP0.7 1.2 μM, 48 h, myotubes day 8 of differentiation, controls and LGMDR1 patients): increase
active β-catenin (Wnt pathway [1]; VP0.7 1.2 μM, 48 h, controls and LGMDR1 patients): increase
inhibition of GSK3β kinase (Wnt pathway [1]; myotubes after drug administration): effective inhibition
expression of ANOS1 [3]: increase
expression of CAPN3 [3]: increase
expression of FOS [3]: increase
expression of ITGB1BP2 [3]: increase
integrin β1D (integrin β1D and melusin): increase
melusin (integrin β1D and melusin): increase
effect on p70S6K and RPS6 expression/phosphorylation (Akt/mTOR pathway; VP0.7 1.2 μM, 48 h, control myotubes): very slight
phosphorylation of mTOR (Ser2448) (Akt/mTOR pathway; [14]): significant increase
phosphorylation of mTOR (Ser2481) (Akt/mTOR pathway; [14]): significant increase
total mTOR (Akt/mTOR pathway; [14]): no significant changes
expression of total p70S6K (Akt/mTOR pathway; [15]): increased
p70S6K phosphorylation (Thr389) (Akt/mTOR pathway; [15]): increased
p70S6K phosphorylation (Thr421/Ser424) (Akt/mTOR pathway; [15]): increased
phosphorylation of the RPS6 protein (Ser235/Ser236) (Akt/mTOR pathway; [15]): increased
P-p70S6K (T421-S424) (Akt/mTOR pathway; VP0.7 1.2 μM, myotubes, control 13-05, protein expression value relative to the same sample without treatment): 1
P-RPS6 (S235-S236) (Akt/mTOR pathway; [16]): 1.1
P-p70S6K (T389) (Akt/mTOR pathway; [16]): 0.94
P-p70S6K (T421-S424) (Akt/mTOR pathway; VP0.7 1.2 μM, myotubes, patient 09-25, protein expression value relative to the same sample without treatment): 1.6
P-RPS6 (S235-S236) (Akt/mTOR pathway; [17]): 2.8
P-p70S6K (T389) (Akt/mTOR pathway; [17]): 1.6
active form of β-catenin (Wnt pathway [4]): did not show an increase
phosphorylation of GSK3β(Ser9) (Wnt pathway [4]): did not show an increase
β-catenin (Wnt pathway [4]): did not show an increase
phosphorylation of RPS6 (mTOR pathway [5]): very slight increase
active form of β-catenin (Wnt pathway [6]): no significant alteration
amount of total β-catenin (Wnt pathway [6]): no significant alteration
mTOR (mTOR pathway [7]): no differences
phosphorylation of RPS6 (mTOR pathway [7]): no differences
phosphorylation of p70S6K (mTOR pathway [7]): no differences
inhibition of GSK3 (GSK3 [8]): reversibly inhibits
